Data as given in patent US20060247286A1, “Oxazolidinone antibiotics and derivatives thereof” (priority 2003, published 2006).
Converted amounts (≈) assume the structure as drawn.

Legend:
Type in all cases: cell-based
[1] = system: Enterococcus faecium VRQR (vancomycin resistant, quinolone resistant); experiment: MIC, agar dilution method, Mueller-Hinton agar with 5% defibrinated horse blood; conditions: 35° C., 5% CO2, 24 hours
Method: (§1) The following in vitro results were obtained based on an agar dilution method except for C. pneumoniae. The activity is presented as the minimum inhibitory concentration (MIC).
(§2) Streptococci and enterococci were tested on Mueller-Hinton agar supplemented with 5% defibrinated horse blood, using an approximate inoculum of 1×10^4 cfu/spot an incubation temperature of 35° C. in an atmosphere of 5% CO2 for 24 hours. The MIC was defined as the lowest concentration at which no visible bacterial growth was observed.

[2] = system: Streptococcus pneumoniae IID553; experiment: as above; conditions: 35° C., 5% CO2, 24 hours
Method: as §1, §2

[3] = system: Streptococcus pneumoniae PRQR (penicillin resistant, quinolone resistant); experiment: as above; conditions: 35° C., 5% CO2, 24 hours
Method: as §1, §2

[4] = system: Streptococcus pyogenes IID692; experiment: as above; conditions: 35° C., 5% CO2, 24 hours
Method: as §1, §2

[5] = system: Moraxella catarrhalis ATCC25238; experiment: MIC, agar dilution method, Mueller-Hinton agar; conditions: 1×10^4 cfu/spot, 35° C., 24 hours
Method: as §1
(§3) S. aureus and M. catarrhalis were tested on Mueller-Hinton agar, using an approximate inoculum of 1×10^4 cfu/spot an incubation temperature of 35° C. for 24 hours. The MIC was defined as the lowest concentration at which no visible bacterial growth was observed.

[6] = system: Staphylococcus aureus CR (chloramphenicol resistant); experiment: MIC, agar dilution method, Mueller-Hinton agar; conditions: 1×10^4 cfu/spot, 35° C., 24 hours
Method: as §1, §3

[7] = system: Staphylococcus aureus MR (methicillin resistant); experiment: MIC, agar dilution method, Mueller-Hinton agar; conditions: 1×10^4 cfu/spot, 35° C., 24 hours
Method: as §1, §3

[8] = system: Staphylococcus aureus Smith; experiment: MIC, agar dilution method, Mueller-Hinton agar; conditions: 1×10^4 cfu/spot, 35° C., 24 hours
Method: as §1, §3

CC(=O)NC[C@H]1CN(c2ccc([C@@]3(C#N)[C@@H]4CCC[C@@H]43)cc2)C(=O)O1 [Example 1, N-[5(S)-3-[4-[(1α,5α,6β)-(6-Cyanobicyclo[3.1.0]hexan-6-yl)]phenyl]-2-oxooxazolidin-5-ylmethyl]acetamide] showed an MIC [1] of 0.25 µg/mL (≈ 0.737 µM), an MIC [2] of 0.5 µg/mL (≈ 1.47 µM) and an MIC [3] of 0.25 µg/mL (≈ 0.737 µM). For the same molecule, the MIC [4] was 0.5 µg/mL (≈ 1.47 µM), the MIC [5] was 0.5 µg/mL (≈ 1.47 µM) and the MIC [6] was 2 µg/mL (≈ 5.89 µM). It also gave an MIC [7] of 0.25 µg/mL (≈ 0.737 µM) and an MIC [8] of 0.25 µg/mL (≈ 0.737 µM).
Molecule CC(=O)NC[C@H]1CN(c2ccc([C@@]3(C#N)[C@@H]4CN(C#N)C[C@@H]43)cc2)C(=O)O1 [Example 11, N-[5(S)-3-[4-[(1α,5α,6β)-(3,6-Dicyano-3-azabicyclo[3.1.0]hexan-6-yl)]phenyl]-2-oxooxazolidin-5-ylmethyl]acetamide] has an MIC [1] of 0.25 µg/mL (≈ 0.684 µM), an MIC [2] of 0.25 µg/mL (≈ 0.684 µM) and an MIC [3] of 0.25 µg/mL (≈ 0.684 µM). The MIC [4] was 0.125 µg/mL (≈ 0.342 µM), the MIC [5] was 1 µg/mL (≈ 2.74 µM) and the MIC [6] was 1 µg/mL (≈ 2.74 µM). For the same molecule, the MIC [7] was 0.5 µg/mL (≈ 1.37 µM) and the MIC [8] was 0.25 µg/mL (≈ 0.684 µM).
In the case of CC(=O)NC[C@H]1CN(c2ccc([C@@]3(C#N)[C@@H]4CN(C(=O)CO)C[C@@H]43)cc2)C(=O)O1 [Example 8, N-[5(S)-3-[4-[(1α,5α,6β)-(6-Cyano-3-hydroxyacetyl-3-azabicyclo[3.1.0]hexan-6-yl)]phenyl]-2-oxooxazolidin-5-ylmethyl]acetamide], the MIC [1] is reported as 0.5 µg/mL (≈ 1.25 µM), the MIC [2] is reported as 0.5 µg/mL (≈ 1.25 µM) and the MIC [3] is reported as 0.5 µg/mL (≈ 1.25 µM). It also gave an MIC [4] of 0.5 µg/mL (≈ 1.25 µM), an MIC [5] of 2 µg/mL (≈ 5.02 µM) and an MIC [6] of 2 µg/mL (≈ 5.02 µM). The MIC [7] was 1 µg/mL (≈ 2.51 µM) and the MIC [8] was 1 µg/mL (≈ 2.51 µM).
With CC(=O)NC[C@H]1CN(c2ccc(N3CCOCC3)c(F)c2)C(=O)O1 [Linezolid, reference compound] the MIC [1] was 2 µg/mL (≈ 5.93 µM), the MIC [2] was 2 µg/mL (≈ 5.93 µM) and the MIC [3] was 1 µg/mL (≈ 2.96 µM). It also gave an MIC [4] of 1 µg/mL (≈ 2.96 µM), an MIC [5] of 4 µg/mL (≈ 11.9 µM) and an MIC [6] of 16 µg/mL (≈ 47.4 µM). For the same molecule, the MIC [7] was 1 µg/mL (≈ 2.96 µM) and the MIC [8] was 1 µg/mL (≈ 2.96 µM).
CC(=O)NC[C@H]1CN(c2ccc([C@@]3(C#N)[C@@H]4CN(S(C)(=O)=O)C[C@@H]43)cc2)C(=O)O1 [Example 9, N-[5(S)-3-[4-[(1α,5α,6β)-(6-Cyano-3-methanesulfonyl-3-azabicyclo[3.1.0]hexan-6-yl)]phenyl]-2-oxooxazolidin-5-ylmethyl]acetamide] showed an MIC [1] of 0.5 µg/mL (≈ 1.19 µM), an MIC [2] of 0.5 µg/mL (≈ 1.19 µM) and an MIC [3] of 0.5 µg/mL (≈ 1.19 µM). The MIC [4] was 0.5 µg/mL (≈ 1.19 µM), the MIC [5] was 2 µg/mL (≈ 4.78 µM) and the MIC [6] was 1 µg/mL (≈ 2.39 µM). For the same molecule, the MIC [7] was 0.5 µg/mL (≈ 1.19 µM) and the MIC [8] was 0.5 µg/mL (≈ 1.19 µM).
